From ChEMBL document CHEMBL3822432, “Antibacterial and anticancer activity of a series of novel peptides incorporating cyclic tetra-substituted C(α) amino acids” (Bioorg Med Chem, 2016)
Values after ≈ are worked out from the molar mass of the structure shown. Non-standard residues stand in square brackets, D forms with d. Residues, ends and D or L forms follow the SMILES beside them. ξ: configuration not given here. Ac6c = NC1(C(=O)O)CCCCC1; Ac5c = NC1(C(=O)O)CCCC1; ξOrn = NCCCC(N)C(=O)O; ξDab = NCCC(N)C(=O)O; ξDap = NCC(N)C(=O)O

Experiments:
[1] = test system: Mycobacterium tuberculosis; assay: Antibacterial activity against ofloxacin-resistant Mycobacterium tuberculosis by two fold serial dilution method; assay type: functional
[2] = test system: Mycobacterium tuberculosis; assay: Antibacterial activity against rifampin/isoniazid-resistant Mycobacterium tuberculosis CSU 45 SRI 1377 by two fold serial dilution method; assay type: functional

SMILES | MIC [1] | MIC [2]
CC(=O)NCC(=O)N[C@@H](Cc1ccccc1)C(=O)NC1(C(=O)NCC(=O)NC2(C(=O)NC(CCCN)C(=O)NC3(C(=O)NCC(=O)NC4(C(=O)N[C@@H](Cc5ccccc5)C(=O)NC5(C(=O)NCC(=O)NC6(C(=O)NCC(=O)NC(CCCN)C(=O)NC7(C(=O)NC(CCCN)C(=O)NC(CCCN)C(=O)NC(CCCN)C(=O)NC(CCCN)C(N)=O)CCCCC7)CCCCC6)CCCCC5)CCCCC4)CCCCC3)CCCCC2)CCCCC1 (some centres undefined) (Ac-GF[Ac6c]G[Ac6c][ξOrn][Ac6c]G[Ac6c]F[Ac6c]G[Ac6c]G[ξOrn][Ac6c][ξOrn][ξOrn][ξOrn][ξOrn]-NH2) | 11.4 µM (≈ 25 µg/mL) | 11.4 µM (≈ 25 µg/mL)
CC(=O)NCC(=O)N[C@@H](Cc1ccccc1)C(=O)NC1(C(=O)NCC(=O)NC2(C(=O)N[C@@H](CCCCN)C(=O)N[C@@H](CCCCN)C(=O)NC3(C(=O)NCC(=O)NC4(C(=O)N[C@@H](Cc5ccccc5)C(=O)NC5(C(=O)NCC(=O)NC6(C(=O)NCC(=O)N[C@@H](CCCCN)C(=O)N[C@@H](CCCCN)C(=O)NC7(C(=O)N[C@@H](CCCCN)C(=O)N[C@@H](CCCCN)C(=O)N[C@@H](CCCCN)C(=O)N[C@@H](CCCCN)C(N)=O)CCCCC7)CCCCC6)CCCCC5)CCCCC4)CCCCC3)CCCCC2)CCCCC1 (Ac-GF[Ac6c]G[Ac6c]KK[Ac6c]G[Ac6c]F[Ac6c]G[Ac6c]GKK[Ac6c]KKKK-NH2) | 4.92 µM (≈ 12.5 µg/mL) | 4.92 µM (≈ 12.5 µg/mL)
CC(=O)N[C@@H](CCCCN)C(=O)N[C@@H](CCCCN)C(=O)N[C@@H](CCCCN)C(=O)N[C@@H](CCCCN)C(=O)NCC(=O)N[C@@H](Cc1ccccc1)C(=O)NC1(C(=O)NCC(=O)NC2(C(=O)N[C@@H](CCCCN)C(=O)NC3(C(=O)NCC(=O)NC4(C(=O)N[C@@H](Cc5ccccc5)C(=O)NC5(C(=O)NCC(=O)NC6(C(=O)NCC(=O)N[C@@H](CCCCN)C(=O)NC7(C(N)=O)CCCCC7)CCCCC6)CCCCC5)CCCCC4)CCCCC3)CCCCC2)CCCCC1 (Ac-KKKKGF[Ac6c]G[Ac6c]K[Ac6c]G[Ac6c]F[Ac6c]G[Ac6c]GK[Ac6c]-NH2) | 5.47 µM (≈ 12.5 µg/mL) | 10.9 µM (≈ 25 µg/mL)
CC(=O)NCC(=O)N[C@@H](Cc1ccccc1)C(=O)NC1(C(=O)NCC(=O)NC2(C(=O)N[C@@H](CCCNC(=N)N)C(=O)NC3(C(=O)NCC(=O)NC4(C(=O)N[C@@H](Cc5ccccc5)C(=O)NC5(C(=O)NCC(=O)NC6(C(=O)NCC(=O)N[C@@H](CCCNC(=N)N)C(=O)NC7(C(=O)N[C@@H](CCCNC(=N)N)C(=O)N[C@@H](CCCNC(=N)N)C(=O)N[C@@H](CCCNC(=N)N)C(=O)N[C@@H](CCCNC(=N)N)C(N)=O)CCCC7)CCCC6)CCCC5)CCCC4)CCCC3)CCCC2)CCCC1 (Ac-GF[Ac5c]G[Ac5c]R[Ac5c]G[Ac5c]F[Ac5c]G[Ac5c]GR[Ac5c]RRRR-NH2) | > 43 µM | > 43 µM
CC(=O)NCC(=O)N[C@@H](Cc1ccccc1)C(=O)NC1(C(=O)NCC(=O)NC2(C(=O)NC(CCN)C(=O)NC3(C(=O)NCC(=O)NC4(C(=O)N[C@@H](Cc5ccccc5)C(=O)NC5(C(=O)NCC(=O)NC6(C(=O)NCC(=O)NC(CCN)C(=O)NC7(C(=O)NC(CCN)C(=O)NC(CCN)C(=O)NC(CCN)C(=O)NC(CCN)C(N)=O)CCCCC7)CCCCC6)CCCCC5)CCCCC4)CCCCC3)CCCCC2)CCCCC1 (some centres undefined) (Ac-GF[Ac6c]G[Ac6c][ξDab][Ac6c]G[Ac6c]F[Ac6c]G[Ac6c]G[ξDab][Ac6c][ξDab][ξDab][ξDab][ξDab]-NH2) | 25.6 µM (≈ 54.3 µg/mL) | 25.6 µM (≈ 54.3 µg/mL)
CC(=O)NCC(=O)N[C@H](Cc1ccccc1)C(=O)NC1(C(=O)NCC(=O)N2C(C(=O)N[C@@H](CCCCN)C(=O)NC3(C(=O)NCC(=O)N4C(C(=O)N[C@@H](Cc5ccccc5)C(=O)NC5(C(=O)NCC(=O)N6C(C(=O)NCC(=O)N[C@@H](CCCCN)C(=O)N7C(C(=O)N[C@H](CCCCN)C(=O)N[C@H](CCCCN)C(=O)N[C@H](CCCCN)C(=O)N[C@H](CCCCN)C(N)=O)CC8CCCCC87)CC7CCCCC76)CCCCC5)CC5CCCCC54)CCCCC3)CC3CCCCC32)CCCCC1 (stereo in doubt) | 20.9 µM (≈ 50 µg/mL) | 20.9 µM (≈ 50 µg/mL)
CN[C@@H]1[C@H](O[C@H]2[C@H](O[C@H]3[C@H](O)[C@@H](O)[C@H](N=C(N)N)[C@@H](O)[C@@H]3N=C(N)N)O[C@@H](C)[C@]2(O)C=O)O[C@@H](CO)[C@H](O)[C@H]1O [STREPTOMYCIN] | 3.4 µM (≈ 1.98 µg/mL) | 0.8 µM (≈ 0.465 µg/mL)
CC(=O)NCC(=O)N[C@@H](Cc1ccccc1)C(=O)NC1(C(=O)NCC(=O)N2Cc3ccccc3CC2C(=O)N[C@H](CCCCN)C(=O)NC2(C(=O)NCC(=O)N3Cc4ccccc4CC3C(=O)N[C@H](Cc3ccccc3)C(=O)NC3(C(=O)NCC(=O)N4Cc5ccccc5CC4C(=O)NCC(=O)N[C@H](CCCCN)C(=O)N4Cc5ccccc5CC4C(=O)N[C@H](CCCCN)C(=O)N[C@H](CCCCN)C(=O)N[C@H](CCCCN)C(=O)N[C@H](CCCCN)C(N)=O)CCCCC3)CCCCC2)CCCCC1 (some centres undefined) | 20.7 µM (≈ 50 µg/mL) | 20.7 µM (≈ 50 µg/mL)
CC(=O)NCC(=O)N[C@@H](Cc1ccccc1)C(=O)NC1(C(=O)NCC(=O)NC2(C(=O)N[C@@H](CCCNC(=N)N)C(=O)NC3(C(=O)NCC(=O)NC4(C(=O)N[C@@H](Cc5ccccc5)C(=O)NC5(C(=O)NCC(=O)NC6(C(=O)NCC(=O)N[C@@H](CCCNC(=N)N)C(=O)NC7(C(=O)N[C@@H](CCCNC(=N)N)C(=O)N[C@@H](CCCNC(=N)N)C(=O)N[C@@H](CCCNC(=N)N)C(=O)N[C@@H](CCCNC(=N)N)C(N)=O)CCCCC7)CCCCC6)CCCCC5)CCCCC4)CCCCC3)CCCCC2)CCCCC1 (Ac-GF[Ac6c]G[Ac6c]R[Ac6c]G[Ac6c]F[Ac6c]G[Ac6c]GR[Ac6c]RRRR-NH2) | 40.8 µM (≈ 99.9 µg/mL) | 10.2 µM (≈ 25 µg/mL)
CC(=O)NCC(=O)N[C@@H](Cc1ccccc1)C(=O)NC1(C(=O)NCC(=O)NC2(C(=O)N[C@@H](CCCCN)C(=O)NC3(C(=O)NCC(=O)NC4(C(=O)N[C@@H](Cc5ccccc5)C(=O)NC5(C(=O)NCC(=O)NC6(C(=O)NCC(=O)N[C@@H](CCCCN)C(=O)NC7(C(=O)N[C@@H](CCCCN)C(=O)N[C@@H](CCCCN)C(=O)N[C@@H](CCCCN)C(=O)N[C@@H](CCCCN)C(N)=O)CCCC7)CCCC6)CCCC5)CCCC4)CCCC3)CCCC2)CCCC1 (Ac-GF[Ac5c]G[Ac5c]K[Ac5c]G[Ac5c]F[Ac5c]G[Ac5c]GK[Ac5c]KKKK-NH2) | 22.9 µM (≈ 49.9 µg/mL) | 11.4 µM (≈ 25 µg/mL)
CC(=O)NCC(=O)N[C@@H](Cc1ccccc1)C(=O)NC1(C(=O)NCC(=O)NC2(C(=O)NC(CN)C(=O)NC3(C(=O)NCC(=O)NC4(C(=O)N[C@@H](Cc5ccccc5)C(=O)NC5(C(=O)NCC(=O)NC6(C(=O)NCC(=O)NC(CN)C(=O)NC7(C(=O)NC(CN)C(=O)NC(CN)C(=O)NC(CN)C(=O)NC(CN)C(N)=O)CCCCC7)CCCCC6)CCCCC5)CCCCC4)CCCCC3)CCCCC2)CCCCC1 (some centres undefined) (Ac-GF[Ac6c]G[Ac6c][ξDap][Ac6c]G[Ac6c]F[Ac6c]G[Ac6c]G[ξDap][Ac6c][ξDap][ξDap][ξDap][ξDap]-NH2) | 49.3 µM (≈ 100 µg/mL) | 49.3 µM (≈ 100 µg/mL)
CC(=O)NCC(=O)N[C@@H](Cc1ccccc1)C(=O)NC1(C(=O)NCC(=O)NC2(C(=O)N[C@@H](CCCCN)C(=O)NC3(C(=O)NCC(=O)NC4(C(=O)N[C@@H](Cc5ccccc5)C(=O)NC5(C(=O)NCC(=O)NC6(C(=O)NCC(=O)N[C@@H](CCCCN)C(=O)NC7(C(=O)N[C@@H](CCCCN)C(=O)N[C@@H](CCCCN)C(=O)N[C@@H](CCCCN)C(=O)N[C@@H](CCCCN)C(N)=O)CCCC7)CCCCC6)CCCC5)CCCCC4)CCCC3)CCCCC2)CCCC1 (Ac-GF[Ac5c]G[Ac6c]K[Ac5c]G[Ac6c]F[Ac5c]G[Ac6c]GK[Ac5c]KKKK-NH2) | 11.2 µM (≈ 25 µg/mL) | 11.2 µM (≈ 25 µg/mL)
